Experimental data from ChEMBL document CHEMBL1201862, “PubChem BioAssay data set” (2004).
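Five concentrations, 48 hours, 96-well plates. GI50 is the concentration that inhibits growth by half.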 Activity calls are given as the source filed them. Cut-off read from the data, not from the text of the source: active = GI50 up to about 1.1 µM and inactive = higher.

Key:
Test in all cases: growth of human tumour cells (NCI), 48 h
IGROV-1 = tested on: IGROV-1
SF-539 = tested on: SF-539
SW-620 = tested on: SW-620
K562 = tested on: K562
LOX IMVI = tested on: LOX IMVI
MDA-MB-231 = tested on: MDA-MB-231
Malme-3M = tested on: Malme-3M
RXF 393 = tested on: RXF 393
TK-10 = tested on: TK-10
MCF7 = tested on: MCF7
RPMI-8226 = tested on: RPMI-8226
SK-MEL-2 = tested on: SK-MEL-2
SNB-75 = tested on: SNB-75
OVCAR-4 = tested on: OVCAR-4
U-251 = tested on: U-251
CAKI-1 = tested on: CAKI-1
SK-OV-3 = tested on: SK-OV-3
UACC-257 = tested on: UACC-257
HCT-15 = tested on: HCT-15
SK-MEL-5 = tested on: SK-MEL-5

SMILES	GI50 (IGROV-1)	GI50 (SF-539)	GI50 (SW-620)	GI50 (K562)	GI50 (LOX IMVI)	GI50 (MDA-MB-231)	GI50 (Malme-3M)	GI50 (RXF 393)	GI50 (TK-10)	GI50 (MCF7)	GI50 (RPMI-8226)	GI50 (SK-MEL-2)	GI50 (SNB-75)	GI50 (OVCAR-4)	GI50 (U-251)	GI50 (CAKI-1)	GI50 (SK-OV-3)	GI50 (UACC-257)	GI50 (HCT-15)	GI50 (SK-MEL-5)
CCCCCCCCCCCCCCCC(=O)OCC(C[As](=O)(O)O)OC(=O)CCCCCCCCCCCCCCC (stereo not given)	> 100 µM (inactive)	> 100 µM (inactive)	> 50.9 µM (inactive)	> 100 µM (inactive)	> 100 µM (inactive)	> 100 µM (inactive)	> 74.8 µM (inactive)	> 68.1 µM (inactive)	> 66.5 µM (inactive)	> 100 µM (inactive)	> 100 µM (inactive)	> 100 µM (inactive)	33 µM (inactive)	> 100 µM (inactive)	> 65.6 µM (inactive)	97.3 µM (inactive)	> 58.2 µM (inactive)	> 100 µM (inactive)	> 66.5 µM	> 100 µM (inactive)
Cc1cc(C)c2c(=N)c3ccccc3n(CCCCCCn3c4ccccc4c(=N)c4c(C)cc(C)nc43)c2n1	1.44 µM (inactive)	1.54 µM (inactive)	0.209 µM (active)	0.3 µM (active)	0.182 µM (active)	0.447 µM (active)	1.63 µM (inactive)	1.25 µM (inactive)	1.64 µM (inactive)	0.435 µM (active)	0.305 µM (active)	1.66 µM (inactive)	0.628 µM (active)	1.43 µM (inactive)	0.252 µM (active)	1.45 µM (inactive)	1.62 µM (inactive)	1.64 µM (inactive)	0.181 µM	1.84 µM (inactive)
c1csc(-c2csc(-c3ccsc3)c2)c1	> 100 µM (inactive)	> 55.5 µM (inactive)	> 100 µM (inactive)	> 100 µM (inactive)	> 100 µM (inactive)	> 100 µM (inactive)	56.4 µM (inactive)	> 46.9 µM (inactive)	> 100 µM (inactive)	> 46.3 µM (inactive)	> 100 µM (inactive)	> 100 µM (inactive)	> 92 µM (inactive)	> 100 µM (inactive)	> 100 µM (inactive)	> 100 µM (inactive)	> 100 µM (inactive)	> 100 µM (inactive)	> 100 µM	> 100 µM (inactive)
Oc1nc2c(c(-c3ccc(Br)cc3)n1)COC/C2=C\c1ccc(Br)cc1	> 50 µM (inactive)	> 50 µM (inactive)	> 50 µM (inactive)	> 50 µM (inactive)	> 50 µM (inactive)	> 50 µM (inactive)	> 50 µM (inactive)	> 50 µM (inactive)	> 50 µM (inactive)	47.4 µM (inactive)	> 50 µM (inactive)	> 50 µM (inactive)	> 50 µM (inactive)	> 50 µM (inactive)	> 50 µM (inactive)	> 50 µM (inactive)	> 50 µM (inactive)	> 50 µM (inactive)	> 50 µM	> 50 µM (inactive)
Cc1n[nH]c(=O)c2cc(-c3ccccc3)[nH]c12	70.6 µM (inactive)	> 100 µM (inactive)	> 100 µM (inactive)	38.6 µM (inactive)	58.7 µM (inactive)	40.8 µM (inactive)	64.1 µM (inactive)	> 100 µM (inactive)	59.3 µM (inactive)	30.8 µM (inactive)	37.6 µM (inactive)	31 µM (inactive)	39.2 µM (inactive)	52.6 µM (inactive)	51.2 µM (inactive)	> 100 µM (inactive)	> 100 µM (inactive)	49.8 µM (inactive)	54.2 µM	41.6 µM (inactive)
O=C1c2c(Br)sc(Br)c2[C@H]2OC(=S)N[C@@H]12	10.1 µM (inactive)	16.6 µM (inactive)	2.43 µM (inactive)	2.29 µM (inactive)	3.02 µM (inactive)	12.1 µM (inactive)	3.73 µM (inactive)	3.14 µM (inactive)	20.2 µM (inactive)	9.38 µM (inactive)	4.68 µM (inactive)	13.6 µM (inactive)	16.1 µM (inactive)	6.07 µM (inactive)	2.78 µM (inactive)	3.25 µM (inactive)	15.7 µM (inactive)	7.08 µM (inactive)	1.88 µM	11 µM (inactive)
c1ccc2c[n+](CCCCCCCCCC[n+]3ccc4ccccc4c3)ccc2c1	> 10 µM (inactive)	> 10 µM (inactive)	> 10 µM (inactive)	2.04 µM (inactive)	> 10 µM (inactive)	> 10 µM (inactive)	> 10 µM (inactive)	> 10 µM (inactive)	> 10 µM (inactive)	> 10 µM (inactive)	> 10 µM (inactive)	> 10 µM (inactive)	3.68 µM (inactive)	> 10 µM (inactive)	> 8.59 µM (inactive)	> 10 µM (inactive)	> 10 µM (inactive)	3.48 µM (inactive)	> 10 µM	2.66 µM (inactive)
